{"source": "paper PMC7402526", "about": "“An in vitro quantitative systems pharmacology approach for deconvolving mechanisms of drug-induced, multilineage cytopenias” (PLoS Computational Biology, 2020)", "key": {"[1]": {"system": "hematopoietic stem cells (HSCs)", "experiment": "Multi-lineage toxicity assay (MLTA), HSCs: concentration-response and QSP model fit", "assay_type": "cell-based, human", "details": "Homo sapiens, Hematopoietic stem cell, 144 h", "how_it_was_run": "(§1)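 Values derive from fitting a QSP Emax model (EmaxT 0–2, above 1 denoting added cell killing) to vehicle-normalized lineage counts. Counts were obtained by 17-parameter flow after 6-day culture of human bone marrow CD34+ cells with test article.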"}, "[2]": {"system": "multi-potent progenitors (MPPs)", "experiment": "MLTA, MPPs: concentration-response and QSP model fit", "assay_type": "cell-based, human", "details": "Homo sapiens, 144 h", "how_it_was_run": "as §1"}, "[3]": {"system": "monocyte progenitors (monocyte prog)", "experiment": "MLTA, MonoP: concentration-response and QSP model fit", "assay_type": "cell-based, human", "details": "Homo sapiens, Monocyte, 144 h", "how_it_was_run": "(§2)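 Freeze-thawed primary human bone marrow CD34+ cells were cultured 6 days in SFEM II with a cytokine cocktail, drug added on day 0. Subsets were counted by 17-parameter flow cytometry with TruCount beads and normalized to vehicle wells. An Emax QSP model (Emax 0–2, L1 regularization) was fitted to these counts.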"}, "monocytes (monocyte-lin)": {"system": "monocytes (monocyte-lin)", "experiment": "MLTA, Mono: concentration-response and QSP model fit", "assay_type": "cell-based, human", "details": "Homo sapiens, Monocyte, 144 h", "how_it_was_run": "as §2"}, "[4]": {"system": "early erythroid cells (Eryth I)", "experiment": "MLTA, ErythI: concentration-response and QSP model fit", "assay_type": "cell-based, human", "details": "Homo sapiens, 144 h", "how_it_was_run": "as §2"}, "[5]": {"system": "late erythroid cells (Eryth II)", "experiment": "MLTA, ErythII: concentration-response and QSP model fit", "assay_type": "cell-based, human", "details": "Homo sapiens, 144 h", "how_it_was_run": "as §1"}, "B cells (B-lin)": {"system": "B cells (B-lin)", "experiment": "MLTA, B-lin: concentration-response and QSP model fit", "assay_type": "cell-based, human", "details": "Homo sapiens, B-cell, 144 h", "how_it_was_run": "as §1"}, "[6]": {"system": "total dead cells (totalDeadCells)", "experiment": "MLTA, total dead cells concentration-response", "assay_type": "cell-based", "details": "Homo sapiens, 144 h, 6 days, normalized to vehicle control, read-out: total_dead normalized cell count", "how_it_was_run": "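Freeze-thawed primary human bone marrow CD34+ cells in SFEM II with cytokine cocktail, drug added day 0, 6 days at 37°C, 5% CO2. Live/dead counts by 17-parameter flow cytometry with DAPI exclusion, bead-normalized, volume-corrected to cells/mL. Normalized per donor to mean of six vehicle wells; 2–7 donors pooled.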"}}, "data": [{"smiles": "O=C1CCC(N2C(=O)c3ccccc3C2=O)C(=O)N1", "note": "(stereo not drawn) [thalidomide]", "values": [{"measurement": "activity at 0.0002 µM", "setting": "[1]; dose 0.2 nM, 6 days, normalized to vehicle control, read-out: HSCs normalized cell count", "value": 67.6, "unit": "%"}, {"measurement": "activity at 0.001 µM", "setting": "[1]; dose 1 nM, 6 days, normalized to vehicle control, read-out: HSCs normalized cell count", "value": 92.6, "unit": "%"}, {"measurement": "activity at 0.005 µM", "setting": "[1]; dose 5 nM, 6 days, normalized to vehicle control, read-out: HSCs normalized cell count", "value": 109, "unit": "%"}, {"measurement": "activity at 0.025 µM", "setting": "[1]; dose 25 nM, 6 days, normalized to vehicle control, read-out: HSCs normalized cell count", "value": 96.3, "unit": "%"}, {"measurement": "activity at 0.1 µM", "setting": "[1]; dose 100 nM, 6 days, normalized to vehicle control, read-out: HSCs normalized cell count", "value": 84.9, "unit": "%"}, {"measurement": "activity at 0.5 µM", "setting": "[1]; dose 500 nM, 6 days, normalized to vehicle control, read-out: HSCs normalized cell count", "value": 99.8, "unit": "%"}, {"measurement": "activity at 2.5 µM", "setting": "[1]; dose 2500 nM, 6 days, normalized to vehicle control, read-out: HSCs normalized cell count", "value": 113, "unit": "%"}, {"measurement": "Emax", "setting": "[1]; parameter from QSP model fitting, read-out: Emax_drug_HSC", "value": 0.000374, "unit": "%"}, {"measurement": "activity at 0.0002 µM", "setting": "[2]; dose 0.2 nM, 6 days, normalized to vehicle control, read-out: MPPs normalized cell count", "value": 91.8, "unit": "%"}, {"measurement": "activity at 0.001 µM", "setting": "[2]; dose 1 nM, 6 days, normalized to vehicle control, read-out: MPPs normalized cell count", "value": 75.9, "unit": "%"}, {"measurement": "activity at 0.005 µM", "setting": "[2]; dose 5 nM, 6 days, normalized to vehicle control, read-out: MPPs normalized cell count", "value": 79, "unit": "%"}, {"measurement": "activity at 0.025 µM", "setting": "[2]; dose 25 nM, 6 days, normalized to vehicle control, read-out: MPPs normalized cell count", "value": 87.5, "unit": "%"}, {"measurement": "activity at 0.1 µM", "setting": "[2]; dose 100 nM, 6 days, normalized to vehicle control, read-out: MPPs normalized cell count", "value": 76.7, "unit": "%"}, {"measurement": "activity at 0.5 µM", "setting": "[2]; dose 500 nM, 6 days, normalized to vehicle control, read-out: MPPs normalized cell count", "value": 78.1, "unit": "%"}, {"measurement": "activity at 2.5 µM", "setting": "[2]; dose 2500 nM, 6 days, normalized to vehicle control, read-out: MPPs normalized cell count", "value": 91.5, "unit": "%"}, {"measurement": "Emax", "setting": "[2]; parameter from QSP model fitting, read-out: Emax_drug_MPP", "value": 0.00111, "unit": "%"}, {"measurement": "activity at 0.0002 µM", "setting": "[3]; dose 0.2 nM, 6 days, normalized to vehicle control, read-out: MonoPs normalized cell count", "value": 90.1, "unit": "%"}, {"measurement": "activity at 0.001 µM", "setting": "[3]; dose 1 nM, 6 days, normalized to vehicle control, read-out: MonoPs normalized cell count", "value": 93.5, "unit": "%"}, {"measurement": "activity at 0.005 µM", "setting": "[3]; dose 5 nM, 6 days, normalized to vehicle control, read-out: MonoPs normalized cell count", "value": 98.4, "unit": "%"}, {"measurement": "activity at 0.025 µM", "setting": "[3]; dose 25 nM, 6 days, normalized to vehicle control, read-out: MonoPs normalized cell count", "value": 120, "unit": "%"}, {"measurement": "activity at 0.1 µM", "setting": "[3]; dose 100 nM, 6 days, normalized to vehicle control, read-out: MonoPs normalized cell count", "value": 92, "unit": "%"}, {"measurement": "activity at 0.5 µM", "setting": "[3]; dose 500 nM, 6 days, normalized to vehicle control, read-out: MonoPs normalized cell count", "value": 82.7, "unit": "%"}, {"measurement": "activity at 2.5 µM", "setting": "[3]; dose 2500 nM, 6 days, normalized to vehicle control, read-out: MonoPs normalized cell count", "value": 104, "unit": "%"}, {"measurement": "Emax", "setting": "[3]; parameter from QSP model fitting, read-out: Emax_drug_MonoP", "value": 0.00494, "unit": "%"}, {"measurement": "activity at 0.0002 µM", "setting": "monocytes (monocyte-lin); dose 0.2 nM, 6 days, normalized to vehicle control, read-out: Mon normalized cell count", "value": 83.3, "unit": "%"}, {"measurement": "activity at 0.001 µM", "setting": "monocytes (monocyte-lin); dose 1 nM, 6 days, normalized to vehicle control, read-out: Mon normalized cell count", "value": 94, "unit": "%"}, {"measurement": "activity at 0.005 µM", "setting": "monocytes (monocyte-lin); dose 5 nM, 6 days, normalized to vehicle control, read-out: Mon normalized cell count", "value": 89.4, "unit": "%"}, {"measurement": "activity at 0.025 µM", "setting": "monocytes (monocyte-lin); dose 25 nM, 6 days, normalized to vehicle control, read-out: Mon normalized cell count", "value": 106, "unit": "%"}, {"measurement": "activity at 0.1 µM", "setting": "monocytes (monocyte-lin); dose 100 nM, 6 days, normalized to vehicle control, read-out: Mon normalized cell count", "value": 94.4, "unit": "%"}, {"measurement": "activity at 0.5 µM", "setting": "monocytes (monocyte-lin); dose 500 nM, 6 days, normalized to vehicle control, read-out: Mon normalized cell count", "value": 99.9, "unit": "%"}, {"measurement": "activity at 2.5 µM", "setting": "monocytes (monocyte-lin); dose 2500 nM, 6 days, normalized to vehicle control, read-out: Mon normalized cell count", "value": 97.3, "unit": "%"}, {"measurement": "Emax", "setting": "monocytes (monocyte-lin); parameter from QSP model fitting, read-out: Emax_drug_Mono", "value": 0.00608, "unit": "%"}, {"measurement": "activity at 0.0002 µM", "setting": "[4]; dose 0.2 nM, 6 days, normalized to vehicle control, read-out: ErythI normalized cell count", "value": 101, "unit": "%"}, {"measurement": "activity at 0.001 µM", "setting": "[4]; dose 1 nM, 6 days, normalized to vehicle control, read-out: ErythI normalized cell count", "value": 120, "unit": "%"}, {"measurement": "activity at 0.005 µM", "setting": "[4]; dose 5 nM, 6 days, normalized to vehicle control, read-out: ErythI normalized cell count", "value": 124, "unit": "%"}, {"measurement": "activity at 0.025 µM", "setting": "[4]; dose 25 nM, 6 days, normalized to vehicle control, read-out: ErythI normalized cell count", "value": 122, "unit": "%"}, {"measurement": "activity at 0.1 µM", "setting": "[4]; dose 100 nM, 6 days, normalized to vehicle control, read-out: ErythI normalized cell count", "value": 137, "unit": "%"}, {"measurement": "activity at 0.5 µM", "setting": "[4]; dose 500 nM, 6 days, normalized to vehicle control, read-out: ErythI normalized cell count", "value": 114, "unit": "%"}, {"measurement": "activity at 2.5 µM", "setting": "[4]; dose 2500 nM, 6 days, normalized to vehicle control, read-out: ErythI normalized cell count", "value": 136, "unit": "%"}, {"measurement": "Emax", "setting": "[4]; parameter from QSP model fitting, read-out: Emax_drug_ErythroidI", "value": 0.00343, "unit": "%"}, {"measurement": "activity at 0.0002 µM", "setting": "[5]; dose 0.2 nM, 6 days, normalized to vehicle control, read-out: ErythII normalized cell count", "value": 94.3, "unit": "%"}, {"measurement": "activity at 0.001 µM", "setting": "[5]; dose 1 nM, 6 days, normalized to vehicle control, read-out: ErythII normalized cell count", "value": 99.8, "unit": "%"}, {"measurement": "activity at 0.005 µM", "setting": "[5]; dose 5 nM, 6 days, normalized to vehicle control, read-out: ErythII normalized cell count", "value": 105, "unit": "%"}, {"measurement": "activity at 0.025 µM", "setting": "[5]; dose 25 nM, 6 days, normalized to vehicle control, read-out: ErythII normalized cell count", "value": 111, "unit": "%"}, {"measurement": "activity at 0.1 µM", "setting": "[5]; dose 100 nM, 6 days, normalized to vehicle control, read-out: ErythII normalized cell count", "value": 77.8, "unit": "%"}, {"measurement": "activity at 0.5 µM", "setting": "[5]; dose 500 nM, 6 days, normalized to vehicle control, read-out: ErythII normalized cell count", "value": 87.5, "unit": "%"}, {"measurement": "activity at 2.5 µM", "setting": "[5]; dose 2500 nM, 6 days, normalized to vehicle control, read-out: ErythII normalized cell count", "value": 93.7, "unit": "%"}, {"measurement": "Emax", "setting": "[5]; parameter from QSP model fitting, read-out: Emax_drug_ErythroidII", "value": 0.00351, "unit": "%"}, {"measurement": "activity at 0.0002 µM", "setting": "B cells (B-lin); dose 0.2 nM, 6 days, normalized to vehicle control, read-out: B-lin normalized cell count", "value": 90.8, "unit": "%"}, {"measurement": "activity at 0.001 µM", "setting": "B cells (B-lin); dose 1 nM, 6 days, normalized to vehicle control, read-out: B-lin normalized cell count", "value": 99.6, "unit": "%"}, {"measurement": "activity at 0.005 µM", "setting": "B cells (B-lin); dose 5 nM, 6 days, normalized to vehicle control, read-out: B-lin normalized cell count", "value": 108, "unit": "%"}, {"measurement": "activity at 0.025 µM", "setting": "B cells (B-lin); dose 25 nM, 6 days, normalized to vehicle control, read-out: B-lin normalized cell count", "value": 116, "unit": "%"}, {"measurement": "activity at 0.1 µM", "setting": "B cells (B-lin); dose 100 nM, 6 days, normalized to vehicle control, read-out: B-lin normalized cell count", "value": 93, "unit": "%"}, {"measurement": "activity at 0.5 µM", "setting": "B cells (B-lin); dose 500 nM, 6 days, normalized to vehicle control, read-out: B-lin normalized cell count", "value": 91.5, "unit": "%"}, {"measurement": "activity at 2.5 µM", "setting": "B cells (B-lin); dose 2500 nM, 6 days, normalized to vehicle control, read-out: B-lin normalized cell count", "value": 104, "unit": "%"}, {"measurement": "Emax", "setting": "B cells (B-lin); parameter from QSP model fitting, read-out: Emax_drug_B", "value": 0.24, "unit": "%"}, {"measurement": "activity at 0.0002 µM", "setting": "[6]; dose 0.2 nM", "value": 91.6, "unit": "%"}, {"measurement": "activity at 0.001 µM", "setting": "[6]; dose 1 nM", "value": 109, "unit": "%"}, {"measurement": "activity at 0.005 µM", "setting": "[6]; dose 5 nM", "value": 96.3, "unit": "%"}, {"measurement": "activity at 0.025 µM", "setting": "[6]; dose 25 nM", "value": 120, "unit": "%"}, {"measurement": "activity at 0.1 µM", "setting": "[6]; dose 100 nM", "value": 113, "unit": "%"}, {"measurement": "activity at 0.5 µM", "setting": "[6]; dose 500 nM", "value": 105, "unit": "%"}, {"measurement": "activity at 2.5 µM", "setting": "[6]; dose 2500 nM", "value": 99.8, "unit": "%"}]}]}
